Results taken from patent publication US12077503B2, “Substituted cyclic amides and their use as herbicides” (FMC CORPORATION, priority 2015, dated 2024).

Columns and labels:
Format in all cases: in vivo
[1] = test system: velvetleaf (Abutilon theophrasti); test: Test G Pre-Emergence Protocol; settings: Abutilon theophrasti, pre-emergence, 312 h, evaluated after 13 days; for pest or weed control at 15.625 g/ha: 15.625 g ai/ha; for pest or weed control at 15.625 g/ha / pest or weed control at 250 g/ha: read-out: Velvetleaf damage rating (100=total damage to plant; 0=no damage to plant); for pest or weed control at 62.5 g/ha: 62.5 g ai/ha, 100=total damage to plant, 0=no damage to plant, read-out: Velvetleaf damage rating; for pest or weed control at 250 g/ha: 250 g ai/ha
Procedure, shortened: (§1)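 Under a 24/16° C day/night regime with 14 h light and 65% humidity, sown pots were sprayed after one day with compound (15.625, 62.5 or 250 g/ha; 50:50 acetone/water, 0.5% Tween 20). Damage was assessed visually 13 days later, 0 to 100.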

[2] = test system: ivy-leaved morning glory (Ipomoea hederacea); test: Test G Pre-Emergence Protocol; settings: Ipomoea, pre-emergence, 312 h, evaluated after 13 days; for pest or weed control at 15.625 g/ha: 15.625 g ai/ha; for pest or weed control at 15.625 g/ha / pest or weed control at 250 g/ha: read-out: Morningglory, Ivy-leaved damage rating (100=total damage to plant; 0=no damage to plant); for pest or weed control at 62.5 g/ha: 62.5 g ai/ha, 100=total damage to plant, 0=no damage to plant, read-out: Morningglory, Ivy-leaved damage rating; for pest or weed control at 250 g/ha: 250 g ai/ha
Procedure, shortened: as §1

[3] = test system: corn (Zea mays); test: Test G Pre-Emergence Protocol; settings: Zea mays, pre-emergence, 312 h, evaluated after 13 days; for plant injury at 15.625 g/ha: 15.625 g ai/ha; for plant injury at 15.625 g/ha / plant injury at 250 g/ha: read-out: Corn damage rating (100=total damage to plant; 0=no damage to plant); for plant injury at 62.5 g/ha: 62.5 g ai/ha, 100=total damage to plant, 0=no damage to plant, read-out: Corn damage rating; for plant injury at 250 g/ha: 250 g ai/ha
Procedure, shortened: as §1

[4] = test system: barnyardgrass (Echinochloa crus-galli); test: Test G Pre-Emergence Protocol; settings: Echinochloa crus-galli, pre-emergence, 312 h, evaluated after 13 days; for pest or weed control at 15.625 g/ha: 15.625 g ai/ha; for pest or weed control at 15.625 g/ha / pest or weed control at 250 g/ha: read-out: Barnyardgrass damage rating (100=total damage to plant; 0=no damage to plant); for pest or weed control at 62.5 g/ha: 62.5 g ai/ha, 100=total damage to plant, 0=no damage to plant, read-out: Barnyardgrass damage rating; for pest or weed control at 250 g/ha: 250 g ai/ha
Procedure, shortened: as §1

[5] = test system: redroot pigweed (Amaranthus retroflexus); test: Test G Pre-Emergence Protocol; settings: Amaranthus retroflexus, pre-emergence, 312 h, evaluated after 13 days; for pest or weed control at 15.625 g/ha: 15.625 g ai/ha; for pest or weed control at 15.625 g/ha / pest or weed control at 250 g/ha: read-out: Pigweed, Redroot damage rating (100=total damage to plant; 0=no damage to plant); for pest or weed control at 62.5 g/ha: 62.5 g ai/ha, 100=total damage to plant, 0=no damage to plant, read-out: Pigweed, Redroot damage rating; for pest or weed control at 250 g/ha: 250 g ai/ha
Procedure, shortened: as §1

[6] = test system: giant foxtail (Setaria faberi); test: Test G Pre-Emergence Protocol; settings: Setaria faberi, pre-emergence, 312 h, evaluated after 13 days; for pest or weed control at 15.625 g/ha: 15.625 g ai/ha; for pest or weed control at 15.625 g/ha / pest or weed control at 250 g/ha: read-out: Foxtail, Giant damage rating (100=total damage to plant; 0=no damage to plant); for pest or weed control at 62.5 g/ha: 62.5 g ai/ha, 100=total damage to plant, 0=no damage to plant, read-out: Foxtail, Giant damage rating; for pest or weed control at 250 g/ha: 250 g ai/ha
Procedure, shortened: as §1

[7] = test system: velvetleaf (Abutilon theophrasti); test: Test G Post-Emergence Protocol; settings: Abutilon theophrasti, post-emergence, 312 h, read-out: Velvetleaf damage rating; for pest or weed control at 15.625 g/ha: 15.625 g ai/ha, evaluated after 13 days (100=total damage to plant; 0=no damage to plant); for pest or weed control at 62.5 g/ha: 62.5 g ai/ha; for pest or weed control at 62.5 g/ha / pest or weed control at 250 g/ha: evaluated after 13 days, 100=total damage to plant, 0=no damage to plant; for pest or weed control at 250 g/ha: 250 g ai/ha
Procedure, shortened: (§2)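 Post-emergence herbicidal damage, scored visually 0–100 at 13 days. Application at 15.625, 62.5 or 250 g/ha onto 8-day-old plants grown under glasshouse control.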

[8] = test system: ivy-leaved morning glory (Ipomoea hederacea); test: Test G Post-Emergence Protocol; settings: Ipomoea, post-emergence, 312 h, read-out: Morningglory, Ivy-leaved damage rating; for pest or weed control at 15.625 g/ha: 15.625 g ai/ha, evaluated after 13 days (100=total damage to plant; 0=no damage to plant); for pest or weed control at 62.5 g/ha: 62.5 g ai/ha; for pest or weed control at 62.5 g/ha / pest or weed control at 250 g/ha: evaluated after 13 days, 100=total damage to plant, 0=no damage to plant; for pest or weed control at 250 g/ha: 250 g ai/ha
Procedure, shortened: as §2

[9] = test system: corn (Zea mays); test: Test G Post-Emergence Protocol; settings: Zea mays, post-emergence, 312 h, read-out: Corn damage rating; for plant injury at 15.625 g/ha: 15.625 g ai/ha, evaluated after 13 days (100=total damage to plant; 0=no damage to plant); for plant injury at 62.5 g/ha: 62.5 g ai/ha; for plant injury at 62.5 g/ha / plant injury at 250 g/ha: evaluated after 13 days, 100=total damage to plant, 0=no damage to plant; for plant injury at 250 g/ha: 250 g ai/ha
Procedure, shortened: as §2

[10] = test system: barnyardgrass (Echinochloa crus-galli); test: Test G Post-Emergence Protocol; settings: Echinochloa crus-galli, post-emergence, 312 h, read-out: Barnyardgrass damage rating; for pest or weed control at 15.625 g/ha: 15.625 g ai/ha, evaluated after 13 days (100=total damage to plant; 0=no damage to plant); for pest or weed control at 62.5 g/ha: 62.5 g ai/ha; for pest or weed control at 62.5 g/ha / pest or weed control at 250 g/ha: evaluated after 13 days, 100=total damage to plant, 0=no damage to plant; for pest or weed control at 250 g/ha: 250 g ai/ha
Procedure, shortened: as §2

[11] = test system: redroot pigweed (Amaranthus retroflexus); test: Test G Post-Emergence Protocol; settings: Amaranthus retroflexus, post-emergence, 312 h, read-out: Pigweed, Redroot damage rating; for pest or weed control at 15.625 g/ha: 15.625 g ai/ha, evaluated after 13 days (100=total damage to plant; 0=no damage to plant); for pest or weed control at 62.5 g/ha: 62.5 g ai/ha; for pest or weed control at 62.5 g/ha / pest or weed control at 250 g/ha: evaluated after 13 days, 100=total damage to plant, 0=no damage to plant; for pest or weed control at 250 g/ha: 250 g ai/ha
Procedure, shortened: as §2

[12] = test system: giant foxtail (Setaria faberi); test: Test G Post-Emergence Protocol; settings: Setaria faberi, post-emergence, 312 h, read-out: Foxtail, Giant damage rating; for pest or weed control at 15.625 g/ha: 15.625 g ai/ha, evaluated after 13 days (100=total damage to plant; 0=no damage to plant); for pest or weed control at 62.5 g/ha: 62.5 g ai/ha; for pest or weed control at 62.5 g/ha / pest or weed control at 250 g/ha: evaluated after 13 days, 100=total damage to plant, 0=no damage to plant; for pest or weed control at 250 g/ha: 250 g ai/ha
Procedure, shortened: as §2

CCOc1ccc([C@@H]2CN(C)C(=O)[C@H]2C(=O)Nc2cccc(F)c2C)cc1Cl (racemic) [Compound 1803]
10%: pest or weed control at 15.625 g/ha [1] | pest or weed control at 62.5 g/ha [8] | pest or weed control at 250 g/ha [8]
20%: pest or weed control at 250 g/ha [1] | pest or weed control at 15.625 g/ha [4] | pest or weed control at 250 g/ha [11] | pest or weed control at 15.625 g/ha [12]
70%: pest or weed control at 62.5 g/ha [4] | pest or weed control at 15.625 g/ha [6] | pest or weed control at 250 g/ha [10] | pest or weed control at 62.5 g/ha [12]
40%: pest or weed control at 250 g/ha [5]
90%: pest or weed control at 250 g/ha [4] | pest or weed control at 62.5 g/ha [6] | pest or weed control at 250 g/ha [6]
80%: pest or weed control at 250 g/ha [12]
0%: pest or weed control at 62.5 g/ha [1] | pest or weed control at 15.625 g/ha [2] | pest or weed control at 62.5 g/ha [2] | pest or weed control at 250 g/ha [2] | plant injury at 15.625 g/ha [3] | plant injury at 62.5 g/ha [3] | pest or weed control at 62.5 g/ha [5] | pest or weed control at 15.625 g/ha [7] | pest or weed control at 62.5 g/ha [7] | pest or weed control at 250 g/ha [7] | pest or weed control at 15.625 g/ha [8] | plant injury at 15.625 g/ha [9] | plant injury at 62.5 g/ha [9] | plant injury at 250 g/ha [9] | pest or weed control at 15.625 g/ha [10] | pest or weed control at 62.5 g/ha [10] | pest or weed control at 15.625 g/ha [11] | pest or weed control at 62.5 g/ha [11]
30%: plant injury at 250 g/ha [3] | pest or weed control at 15.625 g/ha [5]

CN1C[C@H](c2ccc(C(F)(F)F)cc2)[C@@H](C(=O)Nc2ccc[n+]([O-])c2F)C1=O (racemic) [Compound 1815]
40%: pest or weed control at 250 g/ha [6]
0%: pest or weed control at 15.625 g/ha [1] | pest or weed control at 62.5 g/ha [1] | pest or weed control at 250 g/ha [1] | pest or weed control at 15.625 g/ha [2] | pest or weed control at 62.5 g/ha [2] | pest or weed control at 250 g/ha [2] | plant injury at 15.625 g/ha [3] | plant injury at 62.5 g/ha [3] | plant injury at 250 g/ha [3] | pest or weed control at 15.625 g/ha [4] | pest or weed control at 62.5 g/ha [4] | pest or weed control at 250 g/ha [4] | pest or weed control at 15.625 g/ha [5] | pest or weed control at 62.5 g/ha [5] | pest or weed control at 250 g/ha [5] | pest or weed control at 15.625 g/ha [6] | pest or weed control at 62.5 g/ha [6] | pest or weed control at 15.625 g/ha [7] | pest or weed control at 62.5 g/ha [7] | pest or weed control at 250 g/ha [7] | pest or weed control at 15.625 g/ha [8] | pest or weed control at 62.5 g/ha [8] | pest or weed control at 250 g/ha [8] | plant injury at 15.625 g/ha [9] | plant injury at 62.5 g/ha [9] | plant injury at 250 g/ha [9] | pest or weed control at 15.625 g/ha [10] | pest or weed control at 62.5 g/ha [10] | pest or weed control at 250 g/ha [10] | pest or weed control at 15.625 g/ha [11] | pest or weed control at 62.5 g/ha [11] | pest or weed control at 250 g/ha [11] | pest or weed control at 15.625 g/ha [12] | pest or weed control at 62.5 g/ha [12]
10%: pest or weed control at 250 g/ha [12]

Cc1c(F)cccc1NC(=O)[C@@H]1C(=O)N(C)C[C@H]1c1cccc(C(C)(C)O)c1 (racemic) [Compound 1819]
80%: pest or weed control at 62.5 g/ha [6] | pest or weed control at 250 g/ha [10] | pest or weed control at 250 g/ha [12]
40%: pest or weed control at 62.5 g/ha [12]
60%: plant injury at 250 g/ha [3] | pest or weed control at 62.5 g/ha [4]
0%: pest or weed control at 15.625 g/ha [1] | pest or weed control at 62.5 g/ha [1] | pest or weed control at 15.625 g/ha [2] | pest or weed control at 62.5 g/ha [2] | pest or weed control at 250 g/ha [2] | plant injury at 15.625 g/ha [3] | plant injury at 62.5 g/ha [3] | pest or weed control at 15.625 g/ha [4] | pest or weed control at 15.625 g/ha [5] | pest or weed control at 62.5 g/ha [5] | pest or weed control at 15.625 g/ha [7] | pest or weed control at 62.5 g/ha [7] | pest or weed control at 250 g/ha [7] | pest or weed control at 15.625 g/ha [8] | pest or weed control at 62.5 g/ha [8] | plant injury at 15.625 g/ha [9] | plant injury at 62.5 g/ha [9] | pest or weed control at 15.625 g/ha [10] | pest or weed control at 15.625 g/ha [11] | pest or weed control at 62.5 g/ha [11] | pest or weed control at 15.625 g/ha [12]
50%: pest or weed control at 250 g/ha [8]
90%: pest or weed control at 250 g/ha [4] | pest or weed control at 250 g/ha [6]
10%: pest or weed control at 250 g/ha [1] | pest or weed control at 250 g/ha [11]
20%: pest or weed control at 250 g/ha [5] | pest or weed control at 15.625 g/ha [6] | plant injury at 250 g/ha [9] | pest or weed control at 62.5 g/ha [10]
